Laboratory results reported in patent US8263631B2, “Anti-cancer pharmaceutical compositions and methods for treating patients with cancer” (Daiichi Sankyo Company, Limited, priority 2006, dated 2012).
Marks after values point to notes of the source that are not given here.

Key:
[1] = system: human kidney cancer line SN12-PM6; assay: In vivo anti-tumor activity against human kidney cancer (SN12-PM6 tumor-bearing nude mouse); details: 0.1 mL per 10 g orally, once a day, 5 times per week, day 10 to 56
Excerpt: In the experiment, human kidney cancer line SN12-PM6 (provided by Professor Seiji Naito of Kyushu University), in which it was confirmed that no mouse pathogenic microorganism was detected by quarantine, was transplanted to a subcutaneous axillary portion of a nude mouse BALB/cA Jcl-nu (CLEA Japan, Inc.), to subculture a tumor. The tumor was cut into small pieces in a size of 5 mm, and transplanted to a right subcutaneous axillary portion of a BALE/cA Jcl-nu mouse by using a troker (CLEA Japan, Inc.). […] Subsequently, distilled water (Otsuka Pharmaceutical Factory, Inc.) was added so that the final concentrations of ethanol and cremophor became each 12.5%. […] Twice a week, the major axis and the minor axis of the transplanted tumor were measured using digital micrometer calipers (MAX-CAL MAX-15: Nihon Sokutei Kougu Kabusikikaisha), and tumor proliferation inhibitory activity was obtained from the following calculation formula and expressed as the tumor volume inhibition rate. […]
Evaluation of anti-tumor activity for each of the drug administration group was determined by the tumor volume inhibition rate. In addition, a statistical difference test was determined by conducting Students' t test with respect to the tumor volumes of the drug non-administration control group and the drug administration group 59 days after transplantation.

[2] = system: human colon cancer line WiDr; assay: In vivo anti-tumor activity against human colon cancer cells (WiDr tumor-bearing nude mouse); details: once a day, 5 times per week
Excerpt: In the experiment, human colon cancer line WiDr (purchased from American Type Culture Collection), in which it was confirmed that no mouse pathogenic microorganism was detected by quarantine, was transplanted to a subcutaneous axillary portion of a nude mouse BALB/cA Jcl-nu (CLEA Japan, Inc.), to subculture a tumor. The tumor was cut into small pieces of 5 mm size, and was transplanted to a right subcutaneous axillary portion of a BALB/cA Jcl-nu mouse by using a troker (CLEA Japan, Inc.). The required amounts of Compounds X and Y were each weighed and were dissolved in N,N-dimethylacetamide (DMA: Wako Pure Chemical Industries, Ltd.), and 5% Emulphor 620 (GAF Corporation)-saline (Otsuka Pharmaceutical Co., Ltd.) was then added to the mixtures in small amounts, so that the concentrations of the compounds were each adjusted to 0.2, 1 or 5 mg/mL. Here, DMA was made to have a final concentration of 2.5%. […] Twice a week, the major axis and the minor axis of the transplanted tumor were measured using digital micrometer calipers (MAX-CAL MAX-15: Nihon Sokutei Kougu Kabusiki Kaisha), and tumor proliferation inhibitory activity was obtained from the following calculation formula and expressed as the tumor volume inhibition rate. Average tumor volume in each test group (mm^3)=½×(minor axis)^2 (mm^2)×(major axis) (mm) Tumor volume inhibition rate (%)={1−(average tumor volume of drug administration group/average tumor volume of drug non-administration group)}×100
Evaluation of anti-tumor activity of each of the drug administration groups was determined by the tumor volume inhibition rate. In addition, a statistical difference test was determined by conducting Students' t test with respect to the tumor the volume of drug non-administration control group and the drug administration group 38 days after transplantation.

[3] = system: MKN74, MKN28, ZR-75-1, SBC-1, AsPC-1, DU-145, ACHN, D341 Med, A-204, RD-ES, SW872, U266 cancer cell lines; assay: Evaluation of cancer cell proliferation inhibitory activity (sulforhodamine B staining, absorbance A490); type: cell-based, human; details: 0.1, 1 or 10 μM (AsPC-1: 0.05, 0.5 or 5 μM), 7 days (U266: 4 days); all cancer cell lines, FIGS. 1-3
Excerpt: Human gastric cancer cell line (MKN74, MKN28) purchased from Immuno-Biological Laboratories Co., Ltd., human breast cancer cell line (ZR-75-1), small-cell lung cancer line (SBC-1), pancreatic cancer cell line (AsPC-1), prostate cancer cell line (DU-145), kidney cancer cell line (ACHN), medulloblastoma line (D341 Med), human sarcoma cell line (rhabdomyosarcoma line A-204, Ewing's sarcoma line RD-ES, liposarcoma line SW872) and multiple myeloma line (U266) that were purchased from […] were used in the test. […]
To the control group was added only DMSO so that its concentration became 0.1%. […] 10 mM Tris was added at […] to each well in which cancer cells were immobilized and stained, and absorbance A490 of each well was measured using MICROPLATE READER Model 3550 (Bio-Rad Laboratories, Inc.). […]
In each of the graphs, the longitudinal axis represents the absorbance [%], and the horizontal axis represents the concentration of Compound X [μM].

[4] = system: human leukemia cell line HL-60; assay: Cell proliferation inhibitory activity against human leukemia cell (Cell Titer 96); type: cell-based; details: 5 days
[5] = system: human leukemia cell line THP-1; assay: as above; type: cell-based; details: 5 days
[6] = system: human non-small-cell lung cancer line A549; assay: In vitro cell proliferation inhibitory activity, combination with VEGFR and Raf kinase inhibitor; type: cell-based; details: Compound X 10 μM alone, A549, 6 days
Description: Human non-small-cell lung cancer line A549 cells were inoculated on a 96-well plate at 5×10^2 cells/well, and at the same time, agents of various concentrations dissolved in DMSO were added so that the concentration of DMSO became 0.1%. […] After addition of the drugs, the cells were cultivated in the presence of 5% carbon dioxide at 37° C. for 6 days. Then, Cell Titer 96 Aqueous One Solution Reagent (Promega Corp.) was added at 40 μl/well each, and then absorbance A490 of each well was measured using MICROPLATE READER (Bio-Rad Laboratories, Inc.).

[7] = system: human non-small-cell lung cancer line A549; assay: In vitro cell proliferation inhibitory activity, combination with EGFR inhibitor; details: Compound X 10 μM alone, A549, 7 days
Description: Human non-small-cell lung cancer line A549 cells (purchased from American Tissue Culture Collection) were cultured using 10% fetal bovine serum (Hyclone Laboratories, Inc.)-RPMI (Invitrogen Corporation). A549 cells were inoculated on a 96-well plate at 5×10^2 cells/well, and at the same time, the agents of various concentrations dissolved in DMSO were added so that the concentration of DMSO became 0.1%. […] After the addition of the drugs, cells were cultivated in the presence of 5% carbon dioxide at 37° C. for 7 days. Then, Cell Titer 96 Aqueous One Solution Reagent (Promega Corp.) was added at 40 μl/well each, followed by 2 hours of cultivation. Absorbance A490 of each well was measured using MICROPLATE READER (Bio-Rad Laboratories, Inc.).

[8] = system: human non-small-cell lung cancer line A549; assay: In vivo anti-tumor activity against non-small-cell lung cancer (A549 tumor-bearing nude mouse); details: Compound X alone, 1 mg/mL, 0.1 mL per 10 g orally, once a day, 5 times per week, day 14 to 60
Description: In the experiment, human non-small-cell lung cancer line A549 (purchased from American Type Culture Collection), in which it was confirmed that no mouse pathogenic microorganism was detected by quarantine, was transplanted to a subcutaneous axillary portion of a nude mouse BALB/cA Jcl-nu (CLEA Japan, Inc.), to subculture a tumor. The tumor was cut into small pieces of 5 mm size, and transplanted to a right subcutaneous axillary portion of a BALB/cA Jcl-nu mouse by using a troker (CLEA Japan, Inc.). […] Twice a week, the major axis and the minor axis of the transplanted tumor were measured using digital micrometer calipers (MAX-CAL MAX-15: Nihon Sokutei Kougu Kabusiki Kaisha), and tumor proliferation inhibitory activity was obtained from the following calculation formula and expressed as the tumor volume inhibition rate. […]
Evaluation of anti-tumor activity for each of the drug administration groups was determined by the tumor volume inhibition rate. In addition, a statistical difference test was determined by conducting Students' t test with respect to tumor volume of the drug non-administration control group and the drug administration group 63 days after transplantation.

[9] = 2 mg/kg orally, determined on Day 35, Exp. 2
[10] = 10 mg/kg orally, determined on Day 35, Exp. 2
[11] = 50 mg/kg orally, determined on Day 35, Exp. 1
[12] = 50 mg/kg orally, determined on Day 35, Exp. 2

| Structure (SMILES) | Tumor volume inhibition rate ([1]; sorafenib alone, 10 mg/mL) | Tumor volume inhibition rate [2, 9] | Tumor volume inhibition rate [2, 10] | Tumor volume inhibition rate [2, 11] | Tumor volume inhibition rate [2, 12] | cancer cell proliferation inhibitory activity (absorbance % of DMSO control) [3] | HL-60 Proliferation inhibition rate ([4]; Compound X 10 μM) | HL-60 Proliferation inhibition rate ([4]; Compound X 25 μM) | HL-60 Proliferation inhibition rate ([4]; Compound X 50 μM) | THP-1 Proliferation inhibition rate ([5]; Compound X 10 μM) | THP-1 Proliferation inhibition rate ([5]; Compound X 25 μM) | THP-1 Proliferation inhibition rate ([5]; Compound X 50 μM) | Proliferation inhibition rate [6] | Tumor volume inhibition rate ([1]; Compound X alone, 0.3 mg/mL) | Cell proliferation inhibition rate [7] | Tumor volume inhibition rate [8] |
| --- | --- | --- | --- | --- | --- | --- | --- | --- | --- | --- | --- | --- | --- | --- | --- | --- |
| CNC(=O)c1cc(Oc2ccc(NC(=O)Nc3ccc(Cl)c(C(F)(F)F)c3)cc2)ccn1 [Sorafenib, sorafenib, reference compound] | 43% |  |  |  |  |  |  |  |  |  |  |  |  |  |  |  |
| CC(C)Nc1cccc(Oc2ccc3nc(COc4ccc(CC5SC(=O)NC5=O)cc4)n(C)c3c2)c1.Cl.Cl (centres unmarked) [Compound Y, 5-(4-(6-(3-Isopropylamino-phenoxy)-1-methyl-1H-benzimidazol-2-ylmethoxy)-benzyl)-thiazolidine-2,4-dione.dihydrochloride] |  | 26* % | 32* % | 35* % | 40* % |  |  |  |  |  |  |  |  |  |  |  |
| Cc1cc(Oc2ccc3nc(COc4ccc(CC5SC(=O)NC5=O)cc4)n(C)c3c2)cc(C)c1N.Cl.Cl (centres unmarked) [Compound X, 5-(4-(6-(4-Amino-3,5-dimethyl-phenoxy)-1-methyl-1H-benzimidazol-2-ylmethoxy)-benzyl)-thiazolidine-2,4-dione.dihydrochloride] |  | 31* % | 35* % | 49* % | 38* % | significant proliferation inhibitory activity | 23% | 27* % | 45** % | 7% | 20% | 48** % | 15% | 37% | 12% | 33% |
